*: point of attachment. Palmitoyl = CCCCCCCCCCCCCCCC(=O)*

The test system of assay [1] is P. falciparum sporozoites, liver schizonts, infected RBC. As to the kind of experiment: Immunofluorescent Ab assay (IFAT) of sera from immunized mice against native parasite. In kind it is in vivo. As for the experimental part: FIG. 2: Mucosal immunization elicits parasite-specific antibody responses. Sera were obtained from C3H/HeJ mice at 2weeks post-immunization by either nasal or sub-lingual route and assayed fro recognition of (a) P. falciparum sporozoites and (B) hepatic schizonts in an IFI assay as described in Material and Methods. The data are representative of three independent experiments.
The reactivity of the sera against native proteins from various stages of the parasite were analyzed by IFAT using either (i) P. faciparum NF54 strain sporozoites (a gift of W. Eling), or (ii) sections from liver biopsies containing day 5 P. falciparum liver schizonts, or (iii) day 6 ½ P. falciparum liver schizonts obtained from a Chimpanzee. IFAT-labeled anti-human IgG, -A, -M (Diagnostic Pasteur France) or anti-mouse (Cappel. Wester Chester. Pa.) diluted {fraction (1/ 200)} were employed as second Abs.

A further assay concerns C3H/HeJ mice. Description: Isotype analysis of polypeptide-specific serum antibodies (ELISA). In kind it is in vivo.
Assay [2] deals with spleen and inguinal lymph node cells. As to the kind of experiment: Lymphocyte proliferative assay ((3H)TdR) on spleen and inguinal lymph node cells of immunized mice. In kind it is cell-based. How it is done: FIG. 3: Systemic cellular immune responses are electited by presentation of lipid-tailed polypeptides to the nasal and sub-lingual mucosal surfaces. Groups of five C3H/HeJ mice were administrated with LSA3-NRII lipid-tailed (black bars) or non-lipdated polypeptide (hatched bars) either a) intranasally, b) sub-lingually, or c) subcutaneously. Two weeks after two administrations, cell suspensions from individual spleens were assayed for in vitro proliferation to the recall polypeptide. Results are expressed as Δ cpm. The background cpm, in unstimulated cells were 1548 fro intranasal, 2356 for sub-lingual and 1965 for subcutaneous routs, Bars represent the mean Δ cpm±SD in each group. The data were similar and are representative of three separate experiments.

In assay [3] the test system is T lymphocytes from ganglia sub-mandibulaires. In kind it is cell-based, BALB/c mice.

“Ac-LEESQVNDDIFNSLVKSVQQEQQHNVK(Pam)NH2 (Ac-LEESQVNDDIFNSLVKSVQQEQQHNVK(Palmitoyl)-NH2; SMILES CCCCCCCCCCCCCCCC(=O)NCCCC[C@H](NC(=O)[C@@H](NC(=O)[C@H](CC(N)=O)NC(=O)[C@H](Cc1c[nH]cn1)NC(=O)[C@H](CCC(N)=O)NC(=O)[C@H](CCC(N)=O)NC(=O)[C@H](CCC(=O)O)NC(=O)[C@H](CCC(N)=O)NC(=O)[C@H](CCC(N)=O)NC(=O)[C@@H](NC(=O)[C@H](CO)NC(=O)[C@H](CCCCN)NC(=O)[C@@H](NC(=O)[C@H](CC(C)C)NC(=O)[C@H](CO)NC(=O)[C@H](CC(N)=O)NC(=O)[C@H](Cc1ccccc1)NC(=O)[C@@H](NC(=O)[C@H](CC(=O)O)NC(=O)[C@H](CC(=O)O)NC(=O)[C@H](CC(N)=O)NC(=O)[C@@H](NC(=O)[C@H](CCC(N)=O)NC(=O)[C@H](CO)NC(=O)[C@H](CCC(=O)O)NC(=O)[C@H](CCC(=O)O)NC(=O)[C@H](CC(C)C)NC(C)=O)C(C)C)[C@@H](C)CC)C(C)C)C(C)C)C(C)C)C(N)=O) [LSA3-NRII lipid-tailed polypeptide, palmitoyl lipid-tailed polypeptide derived from P. falciparum LSA-3]”: the “reactivity of induced Abs with infected RBC's by IFAT” value in assay [1] (different steps of intra-erythrocytic maturation) is reported as “did not react”. The “reactivity of induced Abs with intact parasite by IFAT” value in assay [1] (sporozoite and liver stages, sera of mucosally immunized BALB/c and C3H/HeJ) is given as “react with the intact parasite”. Also, the “isotype profile of serum antibody response” value in the assay on C3H/HeJ mice (mucosal administration (I.N., S.L.)) is recorded as “preferential IgG2a serum antibody response”; with C3H/HeJ mice (subcutaneous route) it was “dominant IgG1 isotype response”. In assay [2] (Ag specificity), the “proliferative responses against irrelevant polypeptide (LSA1-J)” value is on record as “lack of responses”. Moreover, the “maximal delta cpm, inguinal lymph nodes” value in assay [2] (S.L.) is given as 16189 cpm. The “proliferative responses in spleen cells to recall polypeptide” value in assay [2] (S.L. or I.N. application, no mucosal adjuvant, C3H/HeJ) was “strong proliferative responses”. In assay [2] (after mucosal administration, anti-CD4 / anti-CD8 antibodies), the “phenotype of lymphoproliferative responses (antibody blocking)” value is “abrogated by antibodies against CD4 but not by anti- CD8 antibodies”. Also, the “proliferative responses, mucosally versus subcutaneously immunized animals” value in assay [2] (same dose, P<0.05) is “at higher levels compared to subcutaneously immunized animals”.
Regarding “Concanavaline A [CON A, reference compound]”, in assay [3] (positive control), the “immune response (CFSE shift of fluorescence)” value was “maximum immune response”.
With “Nh2-K(NεPam)GRQYIKANSKFIGITERGRILKEPVHGV-COOH [H-K(PAM)TT-pol 476-484]”, the “shift of fluorescence (CFSE)” value in assay [3] was “as intense as that provided by positive CON A control”.

The record behind these values is US20030166542A1, “Systemic immune response induced by mucosal administration of lipid-tailed polypeptides without adjuvant” (INSTITUT PASTEUR, priority 1999, published 2003).
